pEC50, pKi: −log10 of the molar value.
How the values were obtained:
[1] = target: hERG (KCNH2) (Homo sapiens, UniProt Q12809); assay: Inhibition of hERG potassium channel in HEK293 cells by patch clamp assay at 1 uM; settings: HEK293 cells that express hERG
[2] = target: 5-hydroxytryptamine receptor 5A (Homo sapiens, UniProt P47898); assay: Binding affinity to human 5HT5A receptor by radioligand binding assay
[3] = target: Cytochrome P450 2C19 (Homo sapiens, UniProt P33261); assay: Inhibition of human recombinant cytochrome P450 2C19; type: ADME; settings: recombinant enzyme
[4] = target: Cytochrome P450 2D6 (Homo sapiens, UniProt P10635); assay: Inhibition of human recombinant cytochrome P450 2D6; type: ADME; settings: recombinant enzyme
[5] = target: Cytochrome P450 3A4 (Homo sapiens, UniProt P08684); assay: Inhibition of human recombinant cytochrome P450 3A4; type: ADME; settings: recombinant enzyme
[6] = Oral bioavailability in Beagle dog at 3 mg/kg, po and 1 mg/kg, iv; type: ADME, organism-based, Canis lupus familiaris; settings: in vivo
[7] = Binding affinity to adrenergic alpha receptor by radioligand binding assay
[8] = target: Translocator protein (Homo sapiens, UniProt P30536); assay: Binding affinity to benzodiazepine receptor by radioligand binding assay
[9] = target: Cholecystokinin receptor (Homo sapiens, UniProt P32239+P32238); assay: Binding affinity to cholecystokinin receptor by radioligand binding assay; type: protein assay
[10] = Binding affinity to chemokine receptor by radioligand binding assay
[11] = Binding affinity to neurotensin receptor by radioligand binding assay
[12] = Binding affinity to vasoactive intestinal peptide receptor by radioligand binding assay
[13] = Binding affinity to vasopressin receptor by radioligand binding assay
[14] = Binding affinity to chloride channel by radioligand binding assay
[15] = target: Sodium-dependent noradrenaline transporter (Homo sapiens, UniProt P23975); assay: Binding affinity to norepinephrine transporter by radioligand binding assay
[16] = target: Muscarinic acetylcholine receptor; assay: Binding affinity to muscarinic receptor by radioligand binding assay; type: protein assay
[17] = target: T1, 5-hydroxytryptamine receptor 1A (Homo sapiens, UniProt P08908); assay: Displacement of [3H]8-OH-DPAT from human 5HT1A receptor in HEK293 cells
T1 sequence (P08908 whole entry): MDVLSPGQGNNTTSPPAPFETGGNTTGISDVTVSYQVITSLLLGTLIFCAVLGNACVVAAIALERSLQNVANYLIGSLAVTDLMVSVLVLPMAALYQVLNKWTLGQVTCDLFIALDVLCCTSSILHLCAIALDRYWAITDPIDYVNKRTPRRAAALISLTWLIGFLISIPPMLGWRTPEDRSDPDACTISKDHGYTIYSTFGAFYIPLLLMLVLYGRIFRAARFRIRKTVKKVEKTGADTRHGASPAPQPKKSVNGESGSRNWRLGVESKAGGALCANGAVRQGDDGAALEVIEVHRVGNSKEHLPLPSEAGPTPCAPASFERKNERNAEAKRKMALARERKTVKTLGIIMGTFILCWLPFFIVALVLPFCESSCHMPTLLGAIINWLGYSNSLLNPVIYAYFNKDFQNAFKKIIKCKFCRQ

[18] = target: T1, 5-hydroxytryptamine receptor 1A; assay: Activity against 5HT1A receptor by Gi-[35S]GTP-gamma-S binding assay; type: functional

Sequence of Translocator protein (P30536 whole entry): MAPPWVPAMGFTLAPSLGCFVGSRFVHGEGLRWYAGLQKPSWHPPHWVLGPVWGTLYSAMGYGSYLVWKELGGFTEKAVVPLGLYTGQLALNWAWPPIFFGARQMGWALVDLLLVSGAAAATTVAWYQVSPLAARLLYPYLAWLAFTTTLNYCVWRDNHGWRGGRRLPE
Sequence of hERG (KCNH2) (Q12809 whole entry): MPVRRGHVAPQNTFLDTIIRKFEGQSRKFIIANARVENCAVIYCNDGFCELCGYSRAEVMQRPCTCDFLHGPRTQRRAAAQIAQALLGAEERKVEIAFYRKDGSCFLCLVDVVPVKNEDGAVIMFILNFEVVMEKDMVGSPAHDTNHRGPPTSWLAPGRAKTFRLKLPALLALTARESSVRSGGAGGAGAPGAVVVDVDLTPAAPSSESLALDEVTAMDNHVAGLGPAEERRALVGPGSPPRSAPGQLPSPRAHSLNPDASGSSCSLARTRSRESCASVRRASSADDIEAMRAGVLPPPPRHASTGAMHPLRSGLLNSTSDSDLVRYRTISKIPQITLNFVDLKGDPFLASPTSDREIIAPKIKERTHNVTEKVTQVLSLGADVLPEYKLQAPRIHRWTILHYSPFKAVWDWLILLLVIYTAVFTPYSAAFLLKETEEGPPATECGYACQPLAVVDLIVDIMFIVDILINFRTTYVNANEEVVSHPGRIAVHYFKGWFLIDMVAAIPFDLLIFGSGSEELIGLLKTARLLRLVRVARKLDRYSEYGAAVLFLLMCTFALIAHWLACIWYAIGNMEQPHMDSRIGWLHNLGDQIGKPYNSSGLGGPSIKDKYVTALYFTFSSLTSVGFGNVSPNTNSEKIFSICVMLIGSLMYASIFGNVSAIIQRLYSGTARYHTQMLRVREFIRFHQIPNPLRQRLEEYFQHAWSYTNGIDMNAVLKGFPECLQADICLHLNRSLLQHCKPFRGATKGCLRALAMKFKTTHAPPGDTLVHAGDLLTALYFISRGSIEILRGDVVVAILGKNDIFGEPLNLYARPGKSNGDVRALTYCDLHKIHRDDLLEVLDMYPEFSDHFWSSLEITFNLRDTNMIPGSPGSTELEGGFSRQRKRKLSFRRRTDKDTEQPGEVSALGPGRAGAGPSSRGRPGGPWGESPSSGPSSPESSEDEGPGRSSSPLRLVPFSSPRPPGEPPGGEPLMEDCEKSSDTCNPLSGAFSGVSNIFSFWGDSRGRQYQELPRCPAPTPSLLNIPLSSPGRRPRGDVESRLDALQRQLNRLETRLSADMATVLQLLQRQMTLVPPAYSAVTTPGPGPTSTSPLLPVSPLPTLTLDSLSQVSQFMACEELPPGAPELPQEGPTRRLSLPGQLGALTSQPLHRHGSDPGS
Sequence of Sodium-dependent noradrenaline transporter (P23975 whole entry): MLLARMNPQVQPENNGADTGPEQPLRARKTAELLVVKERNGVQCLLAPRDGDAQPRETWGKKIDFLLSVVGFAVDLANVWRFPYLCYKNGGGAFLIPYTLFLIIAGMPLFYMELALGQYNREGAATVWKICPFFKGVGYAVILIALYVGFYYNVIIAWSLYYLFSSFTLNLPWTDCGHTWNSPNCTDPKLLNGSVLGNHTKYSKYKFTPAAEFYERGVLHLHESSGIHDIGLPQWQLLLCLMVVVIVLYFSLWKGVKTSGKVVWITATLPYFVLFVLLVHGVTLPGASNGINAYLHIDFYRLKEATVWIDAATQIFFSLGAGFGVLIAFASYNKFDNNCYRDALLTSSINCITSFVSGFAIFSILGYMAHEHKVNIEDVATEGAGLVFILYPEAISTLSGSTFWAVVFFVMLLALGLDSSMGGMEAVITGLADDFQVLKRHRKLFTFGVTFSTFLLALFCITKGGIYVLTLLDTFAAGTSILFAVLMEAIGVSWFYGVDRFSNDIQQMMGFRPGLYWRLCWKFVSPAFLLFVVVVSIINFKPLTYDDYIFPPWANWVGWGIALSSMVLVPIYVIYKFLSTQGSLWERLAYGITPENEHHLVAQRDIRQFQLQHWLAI
Sequence of Cytochrome P450 2D6 (P10635 whole entry): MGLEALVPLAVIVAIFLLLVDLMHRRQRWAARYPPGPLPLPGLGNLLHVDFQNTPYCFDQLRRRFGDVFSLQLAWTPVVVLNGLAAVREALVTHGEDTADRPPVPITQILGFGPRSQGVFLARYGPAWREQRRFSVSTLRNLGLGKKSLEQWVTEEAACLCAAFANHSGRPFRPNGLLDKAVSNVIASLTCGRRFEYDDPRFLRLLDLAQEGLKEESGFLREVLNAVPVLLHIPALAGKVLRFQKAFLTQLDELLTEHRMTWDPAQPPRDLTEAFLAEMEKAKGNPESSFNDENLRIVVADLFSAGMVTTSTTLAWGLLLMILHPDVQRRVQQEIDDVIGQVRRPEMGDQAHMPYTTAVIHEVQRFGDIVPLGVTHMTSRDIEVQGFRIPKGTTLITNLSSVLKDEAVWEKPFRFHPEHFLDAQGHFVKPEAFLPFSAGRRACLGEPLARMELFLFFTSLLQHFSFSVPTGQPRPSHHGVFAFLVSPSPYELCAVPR
Sequence of 5-hydroxytryptamine receptor 5A (P47898 whole entry): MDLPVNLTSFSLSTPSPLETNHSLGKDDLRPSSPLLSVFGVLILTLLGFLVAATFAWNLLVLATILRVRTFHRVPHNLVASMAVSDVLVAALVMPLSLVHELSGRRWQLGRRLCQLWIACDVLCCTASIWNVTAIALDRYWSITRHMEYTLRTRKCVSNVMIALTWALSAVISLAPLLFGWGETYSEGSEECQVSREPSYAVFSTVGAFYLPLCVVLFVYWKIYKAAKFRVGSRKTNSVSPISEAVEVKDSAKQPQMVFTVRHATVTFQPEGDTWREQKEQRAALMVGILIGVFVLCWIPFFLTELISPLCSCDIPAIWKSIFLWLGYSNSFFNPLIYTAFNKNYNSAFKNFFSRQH
Sequence of Cytochrome P450 3A4 (P08684 whole entry): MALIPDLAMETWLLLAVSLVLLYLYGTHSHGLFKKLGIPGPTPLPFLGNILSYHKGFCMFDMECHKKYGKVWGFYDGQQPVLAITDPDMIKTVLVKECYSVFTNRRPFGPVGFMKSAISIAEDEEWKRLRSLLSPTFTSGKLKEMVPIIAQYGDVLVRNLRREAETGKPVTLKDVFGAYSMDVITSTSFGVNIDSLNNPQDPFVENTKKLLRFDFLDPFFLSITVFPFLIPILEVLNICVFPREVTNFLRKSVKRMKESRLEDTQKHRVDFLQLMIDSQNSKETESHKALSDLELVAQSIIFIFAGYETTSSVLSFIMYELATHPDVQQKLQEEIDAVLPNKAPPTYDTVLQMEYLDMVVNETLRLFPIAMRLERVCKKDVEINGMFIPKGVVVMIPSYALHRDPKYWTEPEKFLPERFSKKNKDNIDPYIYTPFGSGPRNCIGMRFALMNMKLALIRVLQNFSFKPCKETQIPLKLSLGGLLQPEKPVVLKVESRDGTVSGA
Sequence of Cytochrome P450 2C19 (P33261 whole entry): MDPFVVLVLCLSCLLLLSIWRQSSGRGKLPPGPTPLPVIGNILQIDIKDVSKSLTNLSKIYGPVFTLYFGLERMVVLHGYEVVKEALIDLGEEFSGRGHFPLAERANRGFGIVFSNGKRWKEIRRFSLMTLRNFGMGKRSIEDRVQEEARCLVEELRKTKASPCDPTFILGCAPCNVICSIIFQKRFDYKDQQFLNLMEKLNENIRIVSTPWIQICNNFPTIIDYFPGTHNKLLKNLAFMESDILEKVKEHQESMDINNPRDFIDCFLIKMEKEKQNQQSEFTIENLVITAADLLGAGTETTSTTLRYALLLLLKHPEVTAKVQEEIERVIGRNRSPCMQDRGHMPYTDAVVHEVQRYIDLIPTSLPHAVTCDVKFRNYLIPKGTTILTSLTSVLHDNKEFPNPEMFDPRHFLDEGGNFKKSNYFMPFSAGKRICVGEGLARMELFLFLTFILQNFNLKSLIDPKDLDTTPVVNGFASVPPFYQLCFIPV

CC(=O)Nc1cccc(N2CCN(CCCCNS(=O)(=O)CC3CCCCC3)CC2)c1 [NALUZOTAN]
inhibition at 1 µM [1]: 21% | pKi [2]: < 5.30 | Inhibition [3]: Not Active | Inhibition [4]: Not Active | Inhibition [5]: Not Active | bioavailability [6]: 16% | pKi [7]: < 5.70 | pKi [8]: < 5.70 | Ki [9]: > 2000 nM | pKi [10]: < 5.70 | pKi [11]: < 5.70 | pKi [12]: < 5.70 | pKi [13]: < 5.70 | pKi [14]: < 5.00 | pKi [15]: < 5.70 | Ki [16]: > 2000 nM | pKi [17]: 8.29 | pEC50 [18]: 7.70

Reference: ChEMBL document CHEMBL1147799, “An integrated in silico 3D model-driven discovery of a novel, potent, and selective amidosulfonamide 5-HT1A agonist (PRX-00023) for the treatment of anxiety and depression” (J Med Chem, 2006)
